Common to all, as to type: cell-based
Data set [1] concerns B16V mouse melanoma cells. Kind of data set: Lightening effect: inhibition of pigmentation in α-MSH-stimulated B16V cells. The settings on record: for IC50: Mus musculus, B16V cells, 10 nM α-MSH, 96 h, absorption 400 nm; for Activity greater than that of kojic acid by a factor: ratio of IC50 values versus kojic acid. The method, then: Test method: B16V mouse melanoma cells are distributed in a 96-well micro titre plate in a concentration of 5×10^3 cells/well. After culturing for 24 h at 37° C. and 5% CO2 in RPMI medium, enriched with 10% foetal calf serum, various concentrations of the test substances and 10 nM α-MSH (α-melanocyte stimulating hormone) are added and the plates are incubated for a further 96 h. The maximum concentration of the test substances used corresponds to 0.1 times the value of the particular IC20 value from the cytotoxicity assay. A parallel incubation was carried out with kojic acid as standard in concentrations of 0.01 mM, 0.1 mM and 1 mM. After the incubation, SDS and NaOH (final concentrations: 1 mM and 1M, respectively) are added to the culture medium and the adsorption (A) is measured at 400 nm after 3 h. The inhibition of the pigmentation in the presence of the test compounds or kojic acid was calculated in accordance with the following equation: Inhibition of pigmentation (%)=100−[(Atest compound/Acontrol)×100] The IC50 is calculated for each test compound from the inhibition of the pigmentation (%) in a series of dilutions of test compounds. The IC50 is the concentration of a test compound at which the pigmentation is 50% inhibited.

Data set [2] can be described thus: Cytotoxicity determination (MTT), 3T3 cells. The settings on record: mouse, 3T3 fibrosarcoma cells; 3T3 cells, 48 h incubation, MTT. The method, then: (§1) 3T3 fibrosarcoma cells or B16V mouse melanoma cells are distributed in a 96-well microtitre plate in a concentration of 1×10^4 cells/well (3T3) or 2×10^4 cells/well (B16V). After culturing for 24 h at 37° C. and 5% CO2 in DMEM medium (3T3 cells) or RPMI medium (B16V cells), enriched with 10% foetal calf serum, the medium is removed by suction. Various concentrations of the test substances, dissolved in fresh medium enriched with 5% foetal calf serum, are added and the plates are incubated for a further 48 h. A parallel incubation is carried out using SDS as standard in concentrations of 0.01 mM, 0.1 mM, 1 mM and 10 mM. After the incubation, the medium is removed by suction and the cells are incubated for with (sic) 2 h with MTT (3-[4,5-dimethylthiazol-2-yl]2,5-diphenyl tetrazolium bromide). After extraction of the dye with SDS acidified with acetic acid in DMSO (10 min), the absorption (A) at 570 nm is measured.
(§2) Average value and standard deviation of the controls, the blanks and the samples are calculated. The average value of the blanks is substracted from the average values of the controls and samples. The viability of the cells is indicated as a percentage with respect to the controls (100%): Viability (%)=(Atest compound/Acontrol)×100]

The nature of data set [3]: Cytotoxicity determination (MTT), B16V cells. The following applies: mouse, B16V melanoma cells, 48 h incubation. The method, then: as §1, §2
Data set [4] deals with 3T3 fibrosarcoma cells. Kind of data set: Cytotoxicity determination (MTT), 3T3 cells. The settings on record: approximately comparable to 4-hexylresorcinol. The method, then: as §1, §2

As a reminder, the IC50 is the concentration needed to halve the response being measured. A higher IC50 goes with a need for much substance. For orientation: IC20 means the concentration needed for an effect of 20%. As to `CCCCCCc1ccc(O)cc1O` [4-hexylresorcinol], in data set [1], 5.2 µM corresponded to half-maximal inhibition (IC50) and the “Activity greater than that of kojic acid by a factor” value is listed as “approximately 87”. In data set [2], this molecule registered an IC20 at 48 h of 70 µM and an IC50 at 48 h of 140 µM.

For the molecule `O=c1cc(CO)occ1O` [Kojic acid, 5-hydroxy-2-hydroxymethyl-4-pyranone], the IC20 at 48 h in data set [2] and in data set [3] was greater than 100000 µM in each case. The IC50 at 48 h in data set [2] and in data set [3] was greater than 100000 µM throughout.

Consider `CC(c1ccccc1)c1ccc(O)cc1O` (stereo not shown) [Styrylresorcinol (4), 4-(1-phenylethyl)-1,3-dihydroxybenzene], for which, in data set [1], inhibition was half-maximal at 2.1 µM (IC50) and the “Activity greater than that of kojic acid by a factor” value is “approximately 215”. Moreover, the “Effectiveness compared with 4-hexylresorcinol” value in data set [1] (versus 4-hexylresorcinol) is reported as “more than twice as effective”. In data set [2], the IC20 at 48 h came to 70 µM and the IC50 at 48 h is 150 µM. The “Cytotoxicity (in words)” value in data set [4] is recorded as “relatively low cytotoxicity”. Besides, in data set [3], the IC20 at 48 h was 20 µM and the IC50 at 48 h stood at 140 µM.

(Values after patent US9655824B2, “Use of diphenylmethane derivatives as tyrosinase inhibitors” (Symrise AG, priority 2003, dated 2017).)
